Laboratory results as given in patent US20260109672A1, “SARS-COV-2 MPRO INHIBITORS AND USES THEREOF” (NXERA PHARMA UK LIMITED, priority 2022, published 2026).

Molecular target: SARS-CoV-2 Mpro (Severe acute respiratory syndrome coronavirus 2, UniProt P0DTD1)
Assay: Modified SARS-CoV-2 Mpro enzyme assay (FRET, kinetic read) for reference examples
Assay type: biochemical
Conditions: 5 nM Mpro, 20 min preincubation at room temperature, mean n=2, set out in PCT/GB2022/050836

Going from “(1R,2S,5S)-N-(4-(cyclopropylamino)-3,4-dioxo-1-((S)-2-oxopyrrolidin-3-yl)butan-2-yl)-3-((E)-3-(2,4-difluorophenyl)acryloyl)-6,6-dimethyl-3-azabicyclo[3.1.0]hexane-2-carboxamide [Example 7]” to “(1R,2S,5S)-N-(4-(cyclopropylamino)-3,4-dioxo-1-((S)-2-oxopyrrolidin-3-yl)butan-2-yl)-3-((S)-3,3-dimethyl-2-(2,2,2-trifluoroacetamido)butanoyl)-6,6-dimethyl-3-azabicyclo[3.1.0]hexane-2-carboxamide [Example 1]”, the “SARS-CoV-2 Mpro enzyme pKi assay pKi” value rises from 6.7 to 7.8.

First: (1R,2S,5S)-N-[1-(cyclopropylmethyl)-3-(methylamino)-2,3-dioxo-propyl]-3-[(2S)-3,3-dimethyl-2-[(2,2,2-trifluoroacetyl)amino]butanoyl]-6,6-dimethyl-3-azabicyclo[3.1.0]hexane-2-carboxamide [Example 2]
Second: (1R,2S,5S)-N-[3-(cyclopropylamino)-2,3-dioxo-1-[(3S)-2-oxopyrrolidin-3-yl]methyl]propyl]-3-[(2S)-3,3-dimethyl-2-(2-methylpropanoylamino)butanoyl]-6,6-dimethyl-3-azabicyclo[3.1.0]hexane-2-carboxamide [Example 5]
The “SARS-CoV-2 Mpro enzyme pKi assay pKi” value of the first is higher: 7.3 for the first, 6.8 for the second.

First: (1R,2S,5S)-N-[3-(cyclopropylamino)-2,3-dioxo-1-[[(3R)-2-oxo-3-piperidyl]methyl]propyl]-3-[(2S)-3,3-dimethyl-2-[(2,2,2-trifluoroacetyl)amino]butanoyl]-6,6-dimethyl-3-azabicyclo[3.1.0]hexane-2-carboxamide [Example 6]
Second: (1R,2S,5S)-N-[3-amino-1-(cyclobutylmethyl)-2,3-dioxo-propyl]-3-[(2S)-3,3-dimethyl-2-[(2,2,2-trifluoroacetyl)amino]butanoyl]-6,6-dimethyl-3-azabicyclo[3.1.0]hexane-2-carboxamide [Example 4]
The “SARS-CoV-2 Mpro enzyme pKi assay pKi” value of the first is lower: 6.7 for the first, 7.3 for the second.

“(1R,2S,5S)-N-[3-amino-1-(cyclopropylmethyl)-2,3-dioxo-propyl]-6,6-dimethyl-3-[(2S)-3-methyl-2-[(2,2,2-trifluoroacetyl)amino]butanoyl]-3-azabicyclo[3.1.0]hexane-2-carboxamide [Example 3]” was tested, and the “SARS-CoV-2 Mpro enzyme pKi assay pKi” value was 7.1.
